The text below walks through data of ChEMBL document CHEMBL3286253, “Design, synthesis, and structure-activity relationship studies of novel thioether pleuromutilin derivatives as potent antibacterial agents” (J Med Chem, 2014).

Converted amounts (≈) assume the structure as drawn.

Data set [1] concerns Staphylococcus aureus. The data set is described as follows: Antibacterial activity against Staphylococcus aureus […] after 16 hrs by agar dilution method. Format: functional.
In data set [2] the test system is Staphylococcus aureus. Nature of the data set: Antibacterial activity against methicillin-sensitive Staphylococcus aureus after 16 hrs by agar dilution method. Format: functional.
Data set [3] deals with Staphylococcus aureus. Nature of the data set: Antibacterial activity against methicillin-resistant Staphylococcus aureus after 16 hrs by agar dilution method. Format: functional.
Data set [4] has as its system Staphylococcus epidermidis. The data set is described as follows: Antibacterial activity against methicillin-sensitive Staphylococcus epidermidis after 16 hrs by agar dilution method. Format: functional.
The next data set concerns Streptococcus pneumoniae. Nature of the data set: Antibacterial activity against penicillin-resistant Streptococcus pneumoniae after 16 hrs by agar dilution method. Format: functional.
The next data set concerns the target T1, Cytochrome P450 1A2 (Homo sapiens, UniProt P05177).
T1 sequence (P05177 whole entry): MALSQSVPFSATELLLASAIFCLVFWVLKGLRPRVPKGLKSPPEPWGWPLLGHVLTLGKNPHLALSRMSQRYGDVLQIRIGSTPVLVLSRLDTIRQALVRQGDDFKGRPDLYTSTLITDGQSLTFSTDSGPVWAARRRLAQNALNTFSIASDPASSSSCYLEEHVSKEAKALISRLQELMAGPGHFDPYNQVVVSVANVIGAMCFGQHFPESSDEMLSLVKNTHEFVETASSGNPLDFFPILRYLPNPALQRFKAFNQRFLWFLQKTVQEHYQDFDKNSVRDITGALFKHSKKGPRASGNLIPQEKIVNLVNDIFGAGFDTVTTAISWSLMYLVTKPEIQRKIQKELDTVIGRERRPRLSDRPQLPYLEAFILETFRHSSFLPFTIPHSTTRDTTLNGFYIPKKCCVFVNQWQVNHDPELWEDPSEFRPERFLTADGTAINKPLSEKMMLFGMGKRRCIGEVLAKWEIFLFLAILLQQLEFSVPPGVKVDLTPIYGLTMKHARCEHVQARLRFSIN
Nature of the data set: Inhibition of CYP1A2 in human liver microsomes using phenacetin as substrate after 15 mins by LC/MS/MS analysis.

For a further data set, the target named is Cytochrome P450 2C9 (Homo sapiens, UniProt P11712). Nature of the data set: Inhibition of CYP2C9 in human liver microsomes using tolbutamide as substrate after 15 mins by LC/MS/MS analysis.
For another data set, the target named is Cytochrome P450 2C19 (Homo sapiens, UniProt P33261). The data set is described as follows: Inhibition of CYP2C19 in human liver microsomes using mephenytoin as substrate after 15 mins by LC/MS/MS analysis.
The next data set addresses Cytochrome P450 2D6 (Homo sapiens, UniProt P10635). Nature of the data set: Inhibition of CYP2D6 in human liver microsomes using dextromethorphan as substrate after 15 mins by LC/MS/MS analysis.
Data set [5] addresses T2, Cytochrome P450 3A4 (Homo sapiens, UniProt P08684). Nature of the data set: Inhibition of CYP3A4 in human liver microsomes using midazolam as substrate after 15 mins by LC/MS/MS analysis.
The target in data set [6] is T2, Cytochrome P450 3A4. The data set is described as follows: Inhibition of CYP3A4 in human liver microsomes using testosterone as substrate after 15 mins by LC/MS/MS analysis.
The test system of data set [7] is Staphylococcus epidermidis. Nature of the data set: Antibacterial activity against methicillin-resistant Staphylococcus epidermidis after 16 hrs by agar dilution method. Format: functional.
Data set [8] can be described thus: AUC (0 to t) in Sprague-Dawley rat at 10 mg/kg, iv. Format: ADME, organism-based. Also on record: dose 10 mg/kg, route intravenous. The settings on record: plasma.
Data set [9] can be described thus: Mean residence time in Sprague-Dawley rat at 10 mg/kg, iv. Format: ADME, organism-based. Set-up: dose 10 mg/kg, route intravenous. Particulars: in vivo.
Data set [10] is described as follows: Elimination half life in Sprague-Dawley rat at 10 mg/kg, iv. Format: ADME, organism-based. Also on record: dose 10 mg/kg, route intravenous. The settings on record: in vivo, read-out: beta t1/2 (converted).
The nature of data set [11]: Clearance in Sprague-Dawley rat at 10 mg/kg, iv. Format: ADME, organism-based. Set-up: dose 10 mg/kg, route intravenous. Particulars: in vivo.
A short description of data set [12]: Volume of distribution at steady state in Sprague-Dawley rat at 10 mg/kg, iv. Particulars: in vivo, read-out: Vdss. Format: ADME, organism-based. Also on record: dose 10 mg/kg, route intravenous.
Data set [13] is described as follows: Aqueous solubility of the compound in water at pH 7.4. The settings on record: buffer.
A short description of data set [14]: AUC (0 to t) in Sprague-Dawley rat at 2 mg/kg, iv administered as cassette dosing. Format: ADME, organism-based. Also on record: dose 2 mg/kg, route intravenous. The settings on record: plasma.
The nature of data set [15]: Mean residence time in Sprague-Dawley rat at 2 mg/kg, iv administered as cassette dosing. Format: ADME, organism-based. Set-up: dose 2 mg/kg, route intravenous. Particulars: in vivo.
Data set [16] in a line: Elimination half life in Sprague-Dawley rat at 2 mg/kg, iv administered as cassette dosing. Format: ADME, organism-based. Set-up: dose 2 mg/kg, route intravenous. Particulars: in vivo, read-out: beta t1/2 (converted).
Data set [17] is described as follows: Clearance in Sprague-Dawley rat at 2 mg/kg, iv administered as cassette dosing. Set-up: dose 2 mg/kg, route intravenous. Format: ADME, organism-based. Particulars: in vivo.
Data set [18] can be described thus: Volume of distribution at steady state in Sprague-Dawley rat at 2 mg/kg, iv administered as cassette dosing. Format: ADME, organism-based. Also on record: dose 2 mg/kg, route intravenous. The settings on record: in vivo, read-out: Vdss.

T2 sequence (P08684 whole entry): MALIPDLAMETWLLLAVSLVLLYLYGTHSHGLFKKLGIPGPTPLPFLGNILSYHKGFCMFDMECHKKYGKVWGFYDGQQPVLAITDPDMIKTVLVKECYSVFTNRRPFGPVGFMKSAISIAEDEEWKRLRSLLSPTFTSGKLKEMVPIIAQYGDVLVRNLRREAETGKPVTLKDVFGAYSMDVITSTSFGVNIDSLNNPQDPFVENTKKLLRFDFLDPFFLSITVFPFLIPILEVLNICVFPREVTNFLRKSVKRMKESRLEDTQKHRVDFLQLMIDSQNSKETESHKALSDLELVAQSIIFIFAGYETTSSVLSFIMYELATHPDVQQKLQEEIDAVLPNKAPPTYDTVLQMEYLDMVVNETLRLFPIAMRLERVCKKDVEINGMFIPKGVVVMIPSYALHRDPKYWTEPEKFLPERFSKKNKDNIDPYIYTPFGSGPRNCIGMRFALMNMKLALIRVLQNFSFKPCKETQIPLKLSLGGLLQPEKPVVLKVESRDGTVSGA
Cytochrome P450 2D6, sequence (P10635 whole entry): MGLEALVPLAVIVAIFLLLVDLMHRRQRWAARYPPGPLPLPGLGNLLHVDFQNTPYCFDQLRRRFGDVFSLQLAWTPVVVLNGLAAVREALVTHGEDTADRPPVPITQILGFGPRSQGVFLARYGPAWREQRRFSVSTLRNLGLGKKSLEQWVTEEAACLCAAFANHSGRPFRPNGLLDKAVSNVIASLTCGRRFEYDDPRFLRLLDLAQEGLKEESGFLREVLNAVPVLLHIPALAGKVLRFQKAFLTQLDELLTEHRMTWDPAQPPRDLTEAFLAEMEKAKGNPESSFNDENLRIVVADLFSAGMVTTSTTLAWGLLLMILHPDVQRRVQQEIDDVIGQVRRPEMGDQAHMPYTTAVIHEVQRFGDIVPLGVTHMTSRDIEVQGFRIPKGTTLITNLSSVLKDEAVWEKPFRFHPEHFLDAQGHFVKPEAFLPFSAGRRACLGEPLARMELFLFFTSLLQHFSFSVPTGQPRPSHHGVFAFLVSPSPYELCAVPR
Cytochrome P450 2C19, sequence (P33261 whole entry): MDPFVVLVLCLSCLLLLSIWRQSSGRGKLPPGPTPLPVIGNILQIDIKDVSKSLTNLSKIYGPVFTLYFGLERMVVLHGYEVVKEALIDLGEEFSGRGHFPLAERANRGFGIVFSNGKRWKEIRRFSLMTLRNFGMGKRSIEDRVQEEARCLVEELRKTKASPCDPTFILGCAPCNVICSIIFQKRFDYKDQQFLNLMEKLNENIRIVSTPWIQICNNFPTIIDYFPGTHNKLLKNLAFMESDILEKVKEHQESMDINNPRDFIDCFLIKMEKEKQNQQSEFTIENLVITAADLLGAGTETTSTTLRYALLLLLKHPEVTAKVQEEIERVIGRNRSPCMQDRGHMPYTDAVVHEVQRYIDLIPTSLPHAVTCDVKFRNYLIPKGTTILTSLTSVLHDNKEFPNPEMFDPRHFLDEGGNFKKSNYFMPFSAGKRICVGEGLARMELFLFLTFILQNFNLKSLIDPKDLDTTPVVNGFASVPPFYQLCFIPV
Cytochrome P450 2C9, sequence (P11712 whole entry): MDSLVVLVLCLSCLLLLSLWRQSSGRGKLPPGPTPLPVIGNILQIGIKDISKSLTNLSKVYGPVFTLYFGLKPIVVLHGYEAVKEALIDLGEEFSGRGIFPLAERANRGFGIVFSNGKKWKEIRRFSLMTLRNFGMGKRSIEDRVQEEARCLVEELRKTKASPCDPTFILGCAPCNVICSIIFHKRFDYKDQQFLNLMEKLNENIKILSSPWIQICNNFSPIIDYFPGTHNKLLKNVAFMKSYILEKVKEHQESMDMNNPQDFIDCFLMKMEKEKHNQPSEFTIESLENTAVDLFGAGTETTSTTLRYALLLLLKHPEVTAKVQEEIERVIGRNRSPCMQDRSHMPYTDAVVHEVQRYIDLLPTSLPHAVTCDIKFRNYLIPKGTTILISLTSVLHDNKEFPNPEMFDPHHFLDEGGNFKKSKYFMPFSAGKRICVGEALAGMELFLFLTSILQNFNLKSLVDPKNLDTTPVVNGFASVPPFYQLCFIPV

Turning to `C=C[C@]1(C)C[C@@H](OC(=O)CSc2ccccn2)[C@]2(C)[C@H](C)CC[C@]3(CCC(=O)[C@H]32)[C@@H](C)[C@@H]1O`, the MIC with Staphylococcus aureus [1] was determined as 0.063 µg/mL (≈ 0.134 µM); against Staphylococcus aureus [2], 0.031 µg/mL (≈ 0.0657 µM); in the data set on Staphylococcus aureus [3], 0.031 µg/mL (≈ 0.0657 µM); in data set [4], 0.031 µg/mL (≈ 0.0657 µM); in the data set on Streptococcus pneumoniae, 0.031 µg/mL (≈ 0.0657 µM); in data set [7], 0.031 µg/mL (≈ 0.0657 µM). The IC50 was more than 10 µM on Cytochrome P450 1A2; more than 10 µM on Cytochrome P450 2C9; more than 10 µM at Cytochrome P450 2C19; more than 10 µM on Cytochrome P450 2D6; 1.25 µM against Cytochrome P450 3A4 [5]; 1.36 µM against Cytochrome P450 3A4 [6].
With `C=C[C@]1(C)C[C@@H](OC(=O)CSc2cccc(CO)c2)[C@]2(C)[C@H](C)CC[C@]3(CCC(=O)[C@H]32)[C@@H](C)[C@@H]1O`, the MIC (with Staphylococcus aureus [1]; with Staphylococcus aureus [2]; against Staphylococcus aureus [3]; in [4]; against Streptococcus pneumoniae; in data set [7]) was 0.063 µg/mL (≈ 0.126 µM) each time. In addition, the half-inhibitory concentration (IC50) at Cytochrome P450 1A2 is more than 25 µM; on Cytochrome P450 2C9 it was 11.1 µM; against Cytochrome P450 2C19, 15.4 µM; at Cytochrome P450 2D6, more than 25 µM; at Cytochrome P450 3A4 [5] it was 1.95 µM; against Cytochrome P450 3A4 [6], 1.9 µM.
For the molecule `C=C[C@]1(C)C[C@@H](OC(=O)CSc2cncc(CO)c2)[C@]2(C)[C@H](C)CC[C@]3(CCC(=O)[C@H]32)[C@@H](C)[C@@H]1O`, the MIC against Staphylococcus aureus [1] amounted to 0.031 µg/mL (≈ 0.0618 µM); against Staphylococcus aureus [2], 0.063 µg/mL (≈ 0.126 µM); with Staphylococcus aureus [3] it was 0.031 µg/mL (≈ 0.0618 µM); in [4], 0.031 µg/mL (≈ 0.0618 µM); in the data set on Streptococcus pneumoniae, 0.063 µg/mL (≈ 0.126 µM); in data set [7] it was 0.031 µg/mL (≈ 0.0618 µM). Besides, in [8], the AUC(0-t) stood at 3480 ng·h/mL. Further, the mean residence time (MRT) in data set [9] stood at 32.4 min. For the same molecule, in data set [10], the half-life is 360 min. Moreover, the clearance in data set [11] was 48 mL/min/kg. Besides, the Vd in data set [12] was determined as 1.56 L/kg.
For `C=C[C@]1(C)C[C@@H](OC(=O)CSc2cncc(N)c2)[C@]2(C)[C@H](C)CC[C@]3(CCC(=O)[C@H]32)[C@@H](C)[C@@H]1O`, the MIC against Staphylococcus aureus [1] amounted to 0.031 µg/mL (≈ 0.0637 µM); against Staphylococcus aureus [2] it was 0.063 µg/mL (≈ 0.129 µM); in the data set with Staphylococcus aureus [3], 0.031 µg/mL (≈ 0.0637 µM); in data set [4], 0.031 µg/mL (≈ 0.0637 µM); in the data set on Streptococcus pneumoniae, 0.063 µg/mL (≈ 0.129 µM); in data set [7] it was 0.031 µg/mL (≈ 0.0637 µM). The solubility entry in data set [13] is on record as “Insoluble”. The IC50 at Cytochrome P450 1A2 is more than 25 µM; against Cytochrome P450 2C9, more than 25 µM; against Cytochrome P450 2C19, 15.5 µM; at Cytochrome P450 2D6 it was 17.1 µM; at Cytochrome P450 3A4 [5], 0.135 µM; against Cytochrome P450 3A4 [6], 0.0444 µM.
For the molecule `C=C[C@]1(C)C[C@@H](OC(=O)CSc2cncc(NC(=O)CN)c2)[C@]2(C)[C@H](C)CC[C@]3(CCC(=O)[C@H]32)[C@@H](C)[C@@H]1O`, the MIC was determined as 0.063 µg/mL (≈ 0.116 µM) in the data set on Staphylococcus aureus [1]; 0.063 µg/mL (≈ 0.116 µM) with Staphylococcus aureus [2]; 0.063 µg/mL (≈ 0.116 µM) in the data set on Staphylococcus aureus [3]; 0.125 µg/mL (≈ 0.23 µM) in data set [4]; 0.063 µg/mL (≈ 0.116 µM) against Streptococcus pneumoniae; 0.125 µg/mL (≈ 0.23 µM) in [7]. Moreover, in [14], the AUC(0-t) was 41 ng·h/mL. In data set [15], this molecule came in with an MRT of 16.8 min. For the same molecule, the half-life in data set [16] is 20.4 min. Besides, in [17], the clearance was 828 mL/min/kg. The Vd in data set [18] is 13.8 L/kg.
